For seven compounds, GI50 and TGI results are on record in PubChem BioAssay (NCI).

Values joined by “and” are separate entries in the source; they are usually repeats but may differ in a detail not shown here. Identical values can stand only once.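 Each compound was tested at five concentrations against cells in 96-well plates for 48 hours. GI50 marks 50% less growth. TGI: total growth inhibition.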

Among the test systems are SNB-19 CNS; MDA-MB-435; K-562 leukemia; MALME-3M melanoma; SF-268 CNS; SN12C renal; OVCAR-8 ovarian; OVCAR-5 ovarian; UACC-257 melanoma; HT29 colon.
Common to all, as to assay: NCI anticancer screen, dose series, 48 h

Consider `CCN(CC)CCCOc1cc(O)c2c(=O)cc(-c3ccccc3)oc2c1`, for which the GI50 is 12.1 µM with SNB-19 CNS; 5.5 µM with MDA-MB-435; 1.48 µM in the assay with K-562 leukemia; 9.81 µM in the assay on MALME-3M melanoma; 10.1 µM in the assay with SF-268 CNS; 10.1 µM with SN12C renal. Moreover, the GI50 in the assay with OVCAR-5 ovarian is 13 µM; in the assay with UACC-257 melanoma, 3.4 µM; with HT29 colon it was 2.36 µM. Besides, the TGI with SNB-19 CNS amounted to 24.5 µM; with MDA-MB-435, 24.8 µM; in the assay with K-562 leukemia, 3.67 µM; with MALME-3M melanoma it was 25 µM; with SF-268 CNS, 22.9 µM; in the assay on SN12C renal it was 22.8 µM. The TGI in the assay with OVCAR-8 ovarian was found to be 28.2 µM; in the assay on OVCAR-5 ovarian, 25.7 µM; in the assay with UACC-257 melanoma it was 12.5 µM; with HT29 colon it was 12.7 µM.

As to `Cc1cc2c3ccccc3ccc2[n+]2ccccc12`, the GI50 in the assay with SNB-19 CNS is 2.11 µM; in the assay with MDA-MB-435, 8.56 µM; with K-562 leukemia it was 4.32 µM; in the assay with MALME-3M melanoma, 0.657 µM; with SF-268 CNS it was 0.839 µM; in the assay on SN12C renal it was 1.4 µM. Besides, the GI50 was 2.43 µM with OVCAR-8 ovarian, 30.3 µM with OVCAR-5 ovarian, 6.17 µM in the assay with UACC-257 melanoma and 9.19 µM in the assay with HT29 colon. For the same compound, the TGI in the assay on SNB-19 CNS was determined as 8.72 µM; in the assay on MDA-MB-435, 26.6 µM; in the assay with K-562 leukemia, 32.8 µM; in the assay on MALME-3M melanoma, 3.45 µM; in the assay with SF-268 CNS, 3.92 µM; in the assay on SN12C renal, 7.29 µM. In addition, the TGI is 21.9 µM in the assay with OVCAR-8 ovarian, above 100 µM with OVCAR-5 ovarian, 27.5 µM in the assay with UACC-257 melanoma and 41.1 µM with HT29 colon.

Take `CC1(C)CC(=O)c2c(ccc(C(=O)C[C@H](N)CO)c2N)O1`: the GI50 is 5.07 µM and 1.41 µM in the assay on SNB-19 CNS; 15.3 µM and 4.47 µM with MDA-MB-435; 2.27 µM and 0.251 µM with K-562 leukemia; above 33.3 µM with MALME-3M melanoma; 5.03 µM and 0.594 µM with SF-268 CNS; 5.68 µM and 2.17 µM in the assay on OVCAR-8 ovarian. Moreover, the GI50 was above 33.3 µM in the assay with OVCAR-5 ovarian and 20.3 µM with UACC-257 melanoma. Further, the TGI in the assay on SNB-19 CNS was 17.5 µM and > 33.3 µM; in the assay on MDA-MB-435, 17.5 µM and > 33.3 µM; with K-562 leukemia, 17.5 µM and > 33.3 µM; in the assay on MALME-3M melanoma, above 33.3 µM; with SF-268 CNS it was 17.5 µM and > 33.3 µM; in the assay on SN12C renal it was 17.5 µM and > 33.3 µM. The TGI was 17.5 µM and > 33.3 µM in the assay with OVCAR-8 ovarian; above 33.3 µM in the assay with OVCAR-5 ovarian; above 33.3 µM in the assay with UACC-257 melanoma; 17.5 µM and > 33.3 µM with HT29 colon.

Turning to `N#Cc1cccc(/C=C(/C(=O)c2ccccc2)c2ccccc2)c1`, the GI50 was 5.07 µM in the assay on SNB-19 CNS; 3 µM in the assay on MDA-MB-435; 3.52 µM with K-562 leukemia; 9.61 µM in the assay on MALME-3M melanoma; 4.3 µM in the assay with SF-268 CNS; 3.85 µM in the assay on SN12C renal. For the same compound, the GI50 with OVCAR-8 ovarian is 2.97 µM; in the assay on OVCAR-5 ovarian, 11.9 µM; with UACC-257 melanoma, 4.05 µM; in the assay with HT29 colon it was 4.23 µM. The TGI is 19.9 µM with SNB-19 CNS; 11 µM in the assay with MDA-MB-435; 23.6 µM in the assay with K-562 leukemia; 27.8 µM in the assay on MALME-3M melanoma; 17.2 µM with SF-268 CNS; 25.9 µM with SN12C renal. Also, the TGI is 25.5 µM in the assay on OVCAR-8 ovarian, 29.1 µM with OVCAR-5 ovarian, 18.2 µM with UACC-257 melanoma and 15 µM with HT29 colon.

With `Nc1c(C(=O)c2cccc(CCC3(O)CCCC3)c2)cnn1-c1ccc(F)cc1`, the GI50 was 15.3 µM in the assay with SNB-19 CNS; 8.98 µM with MDA-MB-435; 10.1 µM with K-562 leukemia; 7.88 µM with MALME-3M melanoma; above 18.5 µM with SF-268 CNS; 16.2 µM in the assay with SN12C renal. For the same compound, the GI50 with OVCAR-8 ovarian was 11.4 µM; with OVCAR-5 ovarian, above 25 µM; in the assay on UACC-257 melanoma, 10 µM; in the assay on HT29 colon, 18.2 µM. Moreover, the TGI in the assay on SNB-19 CNS, in the assay on MDA-MB-435, with K-562 leukemia, with MALME-3M melanoma, in the assay on SF-268 CNS and with SN12C renal was above 25 µM each time. The TGI with OVCAR-8 ovarian, with OVCAR-5 ovarian, in the assay on UACC-257 melanoma and in the assay with HT29 colon was above 25 µM in each case.

For `CN(C)C(=O)c1cc2cnc(Nc3ccc(-c4csc5c(=O)cc(N6CCNCC6)oc45)cc3)nc2n1C1CCCC1`, the GI50 in the assay with SNB-19 CNS was 0.551 µM; in the assay on MDA-MB-435 it was 0.94 µM; in the assay on K-562 leukemia, 0.456 µM; in the assay on MALME-3M melanoma it was 1.38 µM; with SF-268 CNS, 0.638 µM; with SN12C renal, 0.557 µM. In addition, the GI50 is 1.21 µM in the assay on OVCAR-8 ovarian, 0.491 µM with OVCAR-5 ovarian, 5.28 µM in the assay with UACC-257 melanoma and 0.438 µM in the assay on HT29 colon. In addition, the TGI with SNB-19 CNS worked out at 2.62 µM; in the assay on MDA-MB-435, 6.61 µM; with K-562 leukemia, 4.2 µM; in the assay on MALME-3M melanoma, 2.94 µM; in the assay on SF-268 CNS, 4.09 µM; in the assay on SN12C renal it was 16.8 µM. The TGI with OVCAR-8 ovarian is above 42.5 µM; with OVCAR-5 ovarian, 5.11 µM; with UACC-257 melanoma, 22.9 µM; in the assay with HT29 colon it was 2.99 µM.

With `COc1ccc2c(c1)sc1nc(-c3ccccc3)c(-c3ccc(O)c(OC)c3)n12`, the GI50 was 32.5 µM with SNB-19 CNS; 1.42 µM in the assay with MDA-MB-435; 4.53 µM in the assay on K-562 leukemia; above 100 µM with MALME-3M melanoma; 28.8 µM in the assay with SF-268 CNS; 80.4 µM in the assay with SN12C renal. The GI50 with OVCAR-8 ovarian is 41.2 µM; in the assay with OVCAR-5 ovarian, 33.7 µM; in the assay with UACC-257 melanoma, above 100 µM; in the assay with HT29 colon it was 3.56 µM. Further, the TGI was above 100 µM in the assay on SNB-19 CNS; 5.59 µM in the assay with MDA-MB-435; above 100 µM in the assay on K-562 leukemia; above 100 µM with MALME-3M melanoma; above 100 µM in the assay on SF-268 CNS; above 100 µM in the assay on SN12C renal. For the same compound, the TGI in the assay with OVCAR-8 ovarian, in the assay with OVCAR-5 ovarian, in the assay with UACC-257 melanoma and in the assay on HT29 colon was above 100 µM in each case.
